Results from patent publication US20050255537A1, “Method for monitoring treatment with a parathyroid hormone” (priority 1999, published 2005).

Test system: men with primary osteoporosis
Test: Example 5 study GHAJ: incident nonvertebral fractures
Type: in vivo, human
Procedure: Four hundred thirty seven men with primary osteoporosis were enrolled in the study. Approximately one-third of die patients were randomly assigned to LY333334 40 μg/day plus calcium and vitamin D, one-third of the patients were randomly assigned to LY333334 20 μg/day plus calcium and vitamin D, and one-third of the patients were randomly assigned to placebo plus calcium and vitamin D. • Number of Subjects: • PTH: Male 437, Female 0, Total 437; • LY333334 20 μg: Male: Total 151. • LY333334 40 μg: Male: Total 139. • Placebo: Male: Total 147. • Diagnosis and Inclusion Criteria: The study patients were men with primary osteoporosis, aged 30 to 85 years, inclusive. L-2 to L-4 vertebrae must have been intact without artifacts, crush fracture or other abnormalities which would have interfered with the analysis of the posterior-anterior lumbar spine bone mineral density (BMD) measurement which must have been at least 2.0 SD below that of young, healthy men. […] Patient Demographic and Other Baseline Characteristics
Although the incidence of nonvertebral fractures was measured, it was not a specified efficacy endpoint. The number of patients reporting at least one incident nonvertebral fracture is tabulated by fracture location in Table 10 (below). […] At individual body sites, the number of fractures was insufficient for a meaningful statistical analysis.

CC[C@H](C)[C@H](NC(=O)[C@H](CCC(=O)O)NC(=O)[C@H](CO)NC(=O)[C@@H](NC(=O)[C@@H](N)CO)C(C)C)C(=O)N[C@@H](CCC(N)=O)C(=O)N[C@@H](CC(C)C)C(=O)N[C@@H](CCSC)C(=O)N[C@@H](Cc1cnc[nH]1)C(=O)N[C@@H](CC(N)=O)C(=O)N[C@@H](CC(C)C)C(=O)NCC(=O)N[C@@H](CCCCN)C(=O)N[C@@H](Cc1cnc[nH]1)C(=O)N[C@@H](CC(C)C)C(=O)N[C@@H](CC(N)=O)C(=O)N[C@@H](CO)C(=O)N[C@@H](CCSC)C(=O)N[C@@H](CCC(=O)O)C(=O)N[C@@H](CCCN=C(N)N)C(=O)N[C@H](C(=O)N[C@@H](CCC(=O)O)C(=O)N[C@@H](Cc1c[nH]c2ccccc12)C(=O)N[C@@H](CC(C)C)C(=O)N[C@@H](CCCN=C(N)N)C(=O)N[C@@H](CCCCN)C(=O)N[C@@H](CCCCN)C(=O)N[C@@H](CC(C)C)C(=O)N[C@@H](CCC(N)=O)C(=O)N[C@@H](CC(=O)O)C(=O)N[C@H](C(=O)N[C@@H](Cc1cnc[nH]1)C(=O)N[C@@H](CC(N)=O)C(=O)N[C@@H](Cc1ccccc1)C(=O)O)C(C)C)C(C)C [LY333334]
patients with at least one incident nonvertebral fracture: Ankle (20 μg/day): 1
patients with at least one incident nonvertebral fracture: Other (20 μg/day): 0
patients with at least one incident nonvertebral fracture: Radius (20 μg/day): 1
patients with at least one incident nonvertebral fracture: Ribs (20 μg/day): 1
patients with at least one incident nonvertebral fracture: Total Patients (20 μg/day): 2
patients with at least one incident nonvertebral fracture: Ankle (40 μg/day): 0
patients with at least one incident nonvertebral fracture: Other (40 μg/day): 1
patients with at least one incident nonvertebral fracture: Radius (40 μg/day): 0
patients with at least one incident nonvertebral fracture: Ribs (40 μg/day): 0
patients with at least one incident nonvertebral fracture: Total Patients (40 μg/day): 1
treatment difference in proportion of patients having at least one incident nonvertebral fracture (placebo, 20 and 40 μg/day, p=0.670): no significant treatment difference
